Results: article PMC6005765 (Bioorganic & medicinal chemistry letters, 2018)
Starred links: 1 amine or outer side, 2 acyl side, 3 side chain; linkers in the order of their positions; H or OH if unused. Non-standard residues stand in square brackets, D forms with d. Residues, ends and D or L forms follow the SMILES beside them. No end group written: not given here. Phe(2-(2-methyl-1-propenyl)) = CC(C)=Cc1ccccc1C[C@H](N[*:1])C(=O)[*:2]; Phe(2-(3-thienyl)) = O=C([C@H](Cc1ccccc1-c1ccsc1)N[*:1])[*:2]; Phe(2-vinyl) = C=Cc1ccccc1C[C@H](N[*:1])C(=O)[*:2]; Phe(2-Ph) = N[C@@H](Cc1ccccc1-c1ccccc1)C(=O)O; Dmt = Cc1cc(O)cc(C)c1C[C@H](N)C(=O)O

B1: Dmt-D-Ala-Phe(2-(3-thienyl))-Gly-NH2 (peptide)
peptide: [Dmt][dA][Phe(2-(3-thienyl))]G-NH2
modifications: N-terminus assumed
SMILES: Cc1cc(O)cc(C)c1C[C@H](N)C(=O)N[C@H](C)C(=O)N[C@@H](Cc1ccccc1-c1ccsc1)C(=O)NCC(N)=O
B2: Dmt-D-Arg-Phe(2-(3-thienyl))-Gly-NH2 (peptide)
peptide: [Dmt][dR][Phe(2-(3-thienyl))]G-NH2
modifications: N-terminus assumed
SMILES: Cc1cc(O)cc(C)c1C[C@H](N)C(=O)N[C@H](CCCNC(=N)N)C(=O)N[C@@H](Cc1ccccc1-c1ccsc1)C(=O)NCC(N)=O
B3: Dmt-D-Arg-Phe(2-vinyl)-Gly-NH2 (peptide)
peptide: [Dmt][dR][Phe(2-vinyl)]G-NH2
modifications: N-terminus assumed
SMILES: C=Cc1ccccc1C[C@H](NC(=O)[C@@H](CCCNC(=N)N)NC(=O)[C@@H](N)Cc1c(C)cc(O)cc1C)C(=O)NCC(N)=O
B4: Dmt-D-Ala-Phe-Gly-NH2 (peptide)
peptide: [Dmt][dA]FG-NH2
modifications: N-terminus assumed
SMILES: Cc1cc(O)cc(C)c1C[C@H](N)C(=O)N[C@H](C)C(=O)N[C@@H](Cc1ccccc1)C(=O)NCC(N)=O
B5: Dmt-D-Arg-Phe(2-(2-methyl-1-propenyl)-Gly-NH2 (peptide)
peptide: [Dmt][dR][Phe(2-(2-methyl-1-propenyl))]G-NH2
modifications: N-terminus assumed
SMILES: CC(C)=Cc1ccccc1C[C@H](NC(=O)[C@@H](CCCNC(=N)N)NC(=O)[C@@H](N)Cc1c(C)cc(O)cc1C)C(=O)NCC(N)=O

Columns and labels:
rats = assay: Tail-flick test on rats after intrathecal administration; assay type: in vivo, rat
[1] = tested on: guinea pig ileum (GPI), MOP; conditions: read-out: IC50 (GPI); agonist potency
μ opioid receptor (MOP) = μ opioid receptor (MOP) (Homo sapiens, UniProt P35372); assay type: binding; conditions: for Selectivity IC50δ/IC50μ: ratio DOP IC50 / MOP IC50
δ opioid receptor (DOP) = δ opioid receptor (DOP) (Homo sapiens, UniProt P41143); assay type: binding
DOP = DOP (Homo sapiens, UniProt P41143); assay: EPAC cAMP BRET-based biosensor assay, DOP; assay type: cell-based
MOP = MOP (Homo sapiens, UniProt P35372); assay: EPAC cAMP BRET-based biosensor assay, MOP; assay type: cell-based
δ opioid receptor [2] = target: δ opioid receptor (UniProt P41143); assay: radioligand binding
μ opioid receptor [3] = target: μ opioid receptor (UniProt P35372); assay: radioligand binding
μ opioid receptor [4] = target: μ opioid receptor (UniProt P35372)
δ opioid receptor [5] = target: δ opioid receptor (UniProt P41143)
μ opioid receptor [6] = target: μ opioid receptor (UniProt P35372); remark: listed apart in the source
δ opioid receptor [7] = target: δ opioid receptor (UniProt P41143); remark: listed apart in the source

Sequence of MOP (P35372 whole entry): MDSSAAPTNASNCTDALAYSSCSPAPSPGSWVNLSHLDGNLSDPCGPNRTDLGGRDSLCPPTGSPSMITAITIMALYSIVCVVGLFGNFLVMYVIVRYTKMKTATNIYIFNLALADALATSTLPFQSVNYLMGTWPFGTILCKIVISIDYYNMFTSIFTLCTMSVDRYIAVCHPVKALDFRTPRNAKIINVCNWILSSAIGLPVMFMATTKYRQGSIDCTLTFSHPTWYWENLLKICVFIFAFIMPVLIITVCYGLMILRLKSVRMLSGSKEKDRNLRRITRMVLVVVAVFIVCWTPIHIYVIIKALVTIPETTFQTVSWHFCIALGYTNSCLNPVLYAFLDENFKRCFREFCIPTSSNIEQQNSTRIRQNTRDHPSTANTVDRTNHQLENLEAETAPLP
Sequence of μ opioid receptor (MOP) (P35372 whole entry, species assumed): as the sequence (P35372 whole entry) above

Molecule	IC50 [1] [nM]	IC50 (μ opioid receptor (MOP)) [nM]	Selectivity IC50δ/IC50μ (μ opioid receptor (MOP))	IC50 (δ opioid receptor (DOP)) [nM]	IC50 in the mouse vas deferens (MVD) assay (δ opioid receptor [5]) [nM]	IC50 in the guinea pig ileum (GPI) assay (μ opioid receptor [6]) [nM]	also measured
Cc1cc(O)cc(C)c1C[C@H](N)C(=O)N[C@H](C)C(=O)N[C@@H](Cc1ccccc1-c1ccccc1)C(=O)NCC(N)=O [Compound 15, Dmt-D-Ala-Phe(2-phenyl)-Gly-NH2] (H-[Dmt][dA][Phe(2-Ph)]G-NH2)	–	–	–	–	–	–	Duration of analgesic action on thermal nociception (rats): exceeding 60 min
Cc1cc(O)cc(C)c1C[C@H](N)C(=O)N[C@H](CCCNC(=N)N)C(=O)N[C@@H](Cc1ccccc1-c1ccc(F)cc1)C(=O)NCC(N)=O [Compound 12, Dmt-D-Arg-Phe(2-(4-F-phenyl))-Gly-NH2]	0.801 ± 0.086	0.47 ± 0.06	925	435 ± 26	–	–	–
Cc1cc(O)cc(C)c1C[C@H](N)C(=O)N[C@H](CCCNC(=N)N)C(=O)N[C@@H](Cc1ccccc1-c1ccc(C(F)(F)F)cc1)C(=O)NCC(N)=O [Compound 11, Dmt-D-Arg-Phe(2-(4-CF3-phenyl))-Gly-NH2]	1.26 ± 0.17	0.07 ± 0.09	560	39.2 ± 17	–	–	EC50 (DOP): 26.8 ± 6 nM; EC50 (MOP): 0.12 ± 0.05 nM
C=Cc1ccccc1C[C@H](NC(=O)[C@@H](C)N(C)C(=O)[C@@H](N)Cc1c(C)cc(O)cc1C)C(=O)NCC(N)=O [Compound 18, Dmt-N-Me-D-Ala-Phe(2-vinyl)-Gly-NH2]	0.641 ± 0.045	0.36 ± 0.09	165	59.4 ± 0.8	–	–	EC50 (DOP): 4.4 ± 2 nM; EC50 (MOP): 0.003 ± 0.004 nM
Cc1cc(O)cc(C)c1C[C@H](N)C(=O)N[C@H](C)C(=O)N[C@@H](Cc1ccccc1)C(=O)NCC(N)=O [Compound 20, Dmt-D-Ala-Phe-Gly-NH2] (H-[Dmt][dA]FG-NH2)	1.5 ± 0.12	0.14 ± 0.05	161	22.6 ± 4.6	–	–	Duration of analgesic action on thermal nociception (rats): exceeding 60 min; Effectiveness in reversing nociceptive behavior relative to DAMGO (rats): 10 times; EC50 (DOP): 2.4 ± 1 nM; Fold increase in MOP affinity compared to DAMGO (μ opioid receptor (MOP)): 10 fold; EC50 (MOP): 0.012 ± 0.0007 nM
COc1ccc(-c2ccccc2C[C@H](NC(=O)[C@@H](CCCNC(=N)N)NC(=O)[C@@H](N)Cc2c(C)cc(O)cc2C)C(=O)NCC(N)=O)cc1 [Compound 10, Dmt-D-Arg-Phe(2-(4-MeO-phenyl))-Gly-NH2]	0.901 ± 0.224	0.47 ± 0.24	149	70.2 ± 27.2	–	–	–
Cc1cc(O)cc(C)c1C[C@H](N)C(=O)N[C@H](CCCNC(=N)N)C(=O)N[C@@H](Cc1ccccc1-c1ccc(Cl)cc1)C(=O)NCC(N)=O [Compound 13, Dmt-D-Arg-Phe(2-(4-Cl-phenyl))-Gly-NH2]	2.39 ± 0.09	0.35 ± 0.06	989	346 ± 10	–	–	–
CC(C)=Cc1ccccc1C[C@H](NC(=O)[C@@H](CCCNC(=N)N)NC(=O)[C@@H](N)Cc1c(C)cc(O)cc1C)C(=O)NCC(N)=O [Compound 14]	–	–	–	–	–	–	Duration of analgesic action on thermal nociception (rats): exceeding 60 min
Cc1cc(O)cc(C)c1C[C@H](N)C(=O)N[C@H](CCCNC(=N)N)C(=O)N[C@@H](Cc1ccccc1)C(=O)NCC(N)=O [Compound 19, Dmt-D-Arg-Phe-Gly-NH2] (H-[Dmt][dR]FG-NH2)	2.26 ± 0.37	0.1 ± 0.06	140	14 ± 2.7	–	–	Duration of analgesic action on thermal nociception (rats): exceeding 60 min; Effectiveness in reversing nociceptive behavior relative to DAMGO (rats): 10 times; EC50 (DOP): 1.13 ± 0.2 nM; Fold increase in MOP affinity compared to DAMGO (μ opioid receptor (MOP)): 10 fold; EC50 (MOP): 0.008 ± 0.002 nM
B1	–	–	–	–	2.16	1.27	IC50 (δ opioid receptor [2]): 687 nM; IC50 (μ opioid receptor [3]): 240 nM; EPAC MOP EC50 (EPAC cAMP BRET-based biosensor assay) (μ opioid receptor [4]): 34.8 nM
B2	–	–	–	–	2.75	1.54	IC50 (δ opioid receptor [2]): 625 nM; IC50 (μ opioid receptor [3]): 1.45 nM; EPAC DOP EC50 (EPAC cAMP BRET-based biosensor assay) (δ opioid receptor [7]): 49 nM
B3	–	–	–	–	0.406	0.389	IC50 (δ opioid receptor [2]): 18 nM; IC50 (μ opioid receptor [3]): 0.47 nM; EPAC DOP EC50 (EPAC cAMP BRET-based biosensor assay) (δ opioid receptor [7]): 7 nM
B4	–	–	–	–	1.15	1.5	EPAC DOP EC50 (EPAC cAMP BRET-based biosensor assay) (δ opioid receptor [7]): 2.4 nM; EPAC MOP EC50 (EPAC cAMP BRET-based biosensor assay) (μ opioid receptor [4]): 0.012 nM
B5	–	–	–	–	0.63	0.701	IC50 (δ opioid receptor [2]): 585 nM; IC50 (μ opioid receptor [3]): 0.57 nM; EPAC DOP EC50 (EPAC cAMP BRET-based biosensor assay) (δ opioid receptor [7]): 19.4 nM
